From BindingDB's records for doi:10.1016/j.bmcl.2005.09.045 (University of Leeds, 2006)

Biological target: T1, Dihydroorotate dehydrogenase (quinone), mitochondrial (Plasmodium falciparum (isolate 3D7), UniProt Q08210)
T1 sequence (Q08210 whole entry): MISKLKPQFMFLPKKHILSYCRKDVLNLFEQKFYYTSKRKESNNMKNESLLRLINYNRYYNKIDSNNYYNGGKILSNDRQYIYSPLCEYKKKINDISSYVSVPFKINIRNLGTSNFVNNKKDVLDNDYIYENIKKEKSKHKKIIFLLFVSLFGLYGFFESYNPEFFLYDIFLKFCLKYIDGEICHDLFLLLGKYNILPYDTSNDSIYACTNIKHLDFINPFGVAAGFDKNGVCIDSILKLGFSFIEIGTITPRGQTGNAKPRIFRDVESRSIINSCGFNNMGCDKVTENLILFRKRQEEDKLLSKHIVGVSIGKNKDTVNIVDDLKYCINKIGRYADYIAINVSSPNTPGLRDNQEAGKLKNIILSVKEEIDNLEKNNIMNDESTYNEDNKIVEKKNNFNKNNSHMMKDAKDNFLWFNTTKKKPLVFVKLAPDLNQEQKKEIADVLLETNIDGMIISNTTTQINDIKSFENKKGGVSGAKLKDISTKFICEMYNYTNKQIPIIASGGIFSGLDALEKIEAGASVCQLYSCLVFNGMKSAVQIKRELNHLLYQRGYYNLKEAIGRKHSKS
Assay: DHODH Inhibition Assay
Conditions: pH 8; 25 °C
Experimental: The assays were carried out by using a colorimetric DCIP method, which uses the colorimetric reagent 2, 6-dichlorophenolindophenol as the final electron acceptor. DCIP reduction is stoichiometrically equivalent to oxidation of dihydroorotate. Changes in absorbance were quantified in triplicate on a plate reader and data were analyzed to measure the reduction of DCIP as a decrease in absorbance at 600 nm. The data were then processed with Graphpad Prism to determine the IC50 and the apparent enzyme inhibition constant (Ki) for each inhibitor. Ki values were calculated using the Cheng-Prusoff equation with the Km for CoQD of 13 uM and 15 uM for PfDHODH and HsDHODH respectively.

Compound | IC50
CN(C(=O)c1ccc2ccccc2c1)c1ccccc1C(=O)O [2-[methyl(naphthalene-2-)amido]benzoic acid] | > 200 µM
O=C(Nc1ccccc1C(=O)O)c1ccc2ccccc2c1 [2-(naphthalene-2-amido)benzoic acid] | > 200 µM
